Publication PMC10499915 (Scientific Reports, 2023)
Converted amounts (≈) assume the structure as drawn. Like-named read-outs stand apart in the source and are kept apart here. Square brackets hold non-standard residues; d marks the D form. Peptide text beside a SMILES is read from it. * marks the point of attachment. Palmitoyl = CCCCCCCCCCCCCCCC(=O)*; Aib = CC(C)(N)C(=O)O

Tests used:
E.coli ATCC 25922 = type: cell-based, Escherichia coli; conditions: ATCC 25922, 18 h
Protocol: (§1) The bacterial strains used were Escherichia coli ATCC 25922, Staphylococcus aureus ATCC 25923, Klebsiella pneumoniae ATCC 700603, Acinetobacter baumannii ATCC 19606, Pseudomonas aeruginosa ATCC 27853 and Staphylococcus epidermidis ATCC 12228. The reference bacterial strains used were purchased from American Type Culture Collection (ATCC) (Manassas, Virginia, USA). They were grown overnight (o/n) at 37 °C in complete Müller-Hinton broth (MHB, Difco) medium with shaking (130 rpm). The day after, the overnight bacterial cultures were diluted in fresh MHB (300 μL o/n culture in 10 mL) and incubated at 37 °C with shaking (130 rpm) for approximately 2 h (mid-log phase) until reaching an optical density (OD) at 600 nm (OD600) ≈ 0.3.
(§2) Peptides diluted in MHB to a concentration of 128 μM were added to the first column of wells of a 96-well round-bottom microtiter plate (Sarstedt, Milan, Italy) and serially diluted (1:2) in a final volume of 50 μL MHB was added to the next wells. Then, a mid-log bacterial cultures (OD 600≈ 0.3) were diluted to 5 × 10^5 colony-forming units (CFU)/mL in MHB and 50 μL of this bacterial suspension was added to each well. In this way, the final bacterial concentration was reduced to 2.5 × 10^5 CFU/mL and the peptide concentration in the wells was also halved in a final volume of 100 μL (final bacteria load was 2.5 × 10^4 CFU/well). The same amount of untreated bacteria in MHB was used as a control for bacterial growth. […] MIC was determined by visual inspection at the end of incubation as the first clear well. Data are reported as moda of independent experiments repeated three times or four times in case of uncertain values.

S.aureus ATCC 25923 = type: cell-based, Staphylococcus aureus
Protocol: as §1, §2

A.baumanni ATCC 19606 = type: cell-based, Acinetobacter baumannii; conditions: ATCC 19606, 18 h
Protocol: as §1, §2

K.pneumoniae ATCC 700603 = type: cell-based, Klebsiella pneumoniae; conditions: ATCC 700603, 18 h
Protocol: as §1, §2

P.aeruginosa ATCC 27853 = type: cell-based, Pseudomonas aeruginosa; conditions: ATCC 27853, 18 h
Protocol: as §1, §2

S.epidermidis ATCC 12228 = type: cell-based, Staphylococcus epidermidis; conditions: ATCC 12228, 18 h
Protocol: as §1, §2

[1] = system: ram red blood cells (RBCs); conditions: 4% v/v ram RBCs in PBS, 1 h, 37 °C, absorbance 540 nm, 100% = 1% Triton X-100; all concentrations tested; n = 3
Protocol: The lytic potential towards eukaryotic cell membranes was assessed by measuring the release of haemoglobin from commercial ram red blood cells (RBCs) (Microbiol s.r.l., Cagliari, Italy) after exposure to the peptides. First, erythrocytes were isolated by centrifugation, washed with PBS and then suspended at 8% (v/v) in PBS. Secondly, 100 µL erythrocytes suspension was added into each well of a 96-well microplate. Then, 100 µL peptide solution was added to each well at different concentrations (the final concentration of erythrocytes suspension was 4% v/v), and the plates were incubated for 1 h at 37 °C and centrifuged at 1000 g for 10 min. Finally, 100 µL aliquots of supernatant were transferred to fresh 96-well microplate, and the release of haemoglobin was monitored by measuring the absorbance at 540 nm with Tecan microplate reader (Tecan Trading AG, Switzerland). 0% and 100% haemolysis were determined in PBS and 1% Triton X-100, respectively.

chymotrypsin = system: T1, chymotrypsin; test: Proteolytic stability with chymotrypsin; type: in vitro ADME; conditions: chymotrypsin (isolated enzyme) in buffer, after 90 min, Tris·HCl 50 mM pH 7.8, 37 °C; for remaining at 1.5 h, 0.625 mg/mL: 0.125 mg peptide, 1.25 µg enzyme, HPLC peak area (HPLC–MS), triplicates, read-out: percentage of intact peptide with chymotrypsin
T1 construct: purchased Sigma-Aldrich
Protocol: The stability of the peptides in the presence of chymotrypsin was monitored by HPLC–MS, analysing the fragments derived from the degradation of the peptide. All 20-mer analogues (a–f) are sensitive to chymotrypsin. The rate of peptide degradation was calculated as the percentage of intact peptide detected at defined time points. All peptides were mostly degraded within the first 15 min of incubation, with the exception of the lipopeptide e and the short peptide h. […] For peptide h, which was designed with an Aib residue to improve proteolytic resistance, 50% of the peptide was still intact after 90 min (Fig. 5A). The other peptides were cleaved on the C-terminal side of Leu21 or Trp23 as the first cleavage observed. Successive degradations involve Leu14 for all peptides (with the exception of a and h). Concerning 13-mer peptides (g and h), degradation at position 21 occurred only for g and not for the Aib containing peptide h, for which Leu14 is the sensitive point for chymotrypsin attack.
All the degradation experiments were executed in triplicates.

HaCaT cell line = conditions: 24 h
Protocol: Cytotoxicity was measured by the MTT assay on human immortalized epidermal keratinocyte HaCaT cell line (DKFZ, Eppelheim, Germany). The HaCaT cells were grown in high-glucose Dulbecco’s modified Eagle’s medium (DMEM) (Sigma-Aldrich, Milan, Italy). DMEM medium was supplemented with 10% foetal bovine serum (FBS; Sigma, Milan, Italy), 2 mM glutamine (Sigma, Milan, Italy), 100 U/mL penicillin (Sigma, Milan, Italy) and 100 µg/mL streptomycin (Sigma, Milan, Italy). The cells were maintained at 37 °C in the presence of 5% CO2 and in a humidified incubator.
Cells were counted in a Burker-Türk chamber to prepare a suspension of 2 × 10^5 cells/ml in DMEM High Glucose Complete Medium (Sigma-Aldrich, Milan, Italy). 100 μL of this suspension was added to the wells of a 96-well flat-bottom transparent microtiter plate (Euroclone, Milan, Italy) specially treated for tissue culture. The plate was incubated for 24 h at 37 °C and 5% CO2 to allow the cells in each well to reach a semiconfluent state. The following day, serial dilutions (1:2) of the peptides, starting with 64 μM, were prepared in DMEM medium, and 100 μL of these solutions were used to replace the medium in the plate with HaCaT cells. The same amount of untreated DMEM high-glucose medium was used as a cell growth control. DMEM high-glucose complete medium (100 μL) was used as a negative control to check the sterility of the medium. The plate was sealed with Parafilm to minimize evaporation and incubated at 37 °C and 5% CO2 for 20 h. Then, 25 μL MTT (Sigma-Aldrich, Milan, Italy) dissolved in phosphate-buffered saline (PBS) was added to each well to a final concentration of 1 mg/mL MTT, and the plate was incubated for 4 h in the dark at 37 °C and 5% CO2.
At the end of incubation, 100 μL 10% (w/v) Igepal (Sigma-Aldrich, Milan, Italy) in 10 mM HCl was added to each well, and the plate was incubated overnight in the dark at 37 °C and 5% CO2. The absorbance of MTT at 570 nm was measured using a Nanoquant Infinite-M200Pro plate reader (Tecan, Männedorf, Switzerland). Student’s t-test was performed for all samples.

[2] = 4h and 24 h incubation, different concentrations
[3] = Hydrophobicity by RP-HPLC retention time; type: physicochemical; conditions: for Retention time tR: used as measure of hydrophobicity, RP-HPLC, Phenomenex Luna C18 (100 Å, 5µ), linear gradient 5%B to 95%B over 30 min, A 0.1% TFA in 9:1 water:acetonitrile, B 0.1% TFA in 9:1 acetonitrile:water, 1 mL/min, peptide 0.5 mg/mL in MeOH, UV 215 and 280 nm
Protocol: Peptide hydrophobicity was calculated as difference in retention times between peptide analogues b–h and peptide a. Each peptide was dissolved in MeOH to a concentration of 0.5 mg/mL and then subjected to RP-HPLC on an analytical Phenomenex Luna C18 (100 Å, 5µ) column using 0.1% TFA in 9:1 water:acetonitrile as solvent A, and 0.1% TFA in 9:1 acetonitrile:water as solvent B. The peptides were eluted using a linear gradient as follows: 5%B to 95%B over 30 min. The flow rate was 1 mL/min and the absorbance was measured at 215 nm and 280 nm. The retention time was recorded for each peptide.

[4] = system: E. coli, A. baumannii, K. pneumoniae, P. aeruginosa, and S. epidermidis strains; type: cell-based; conditions: 18 h
Protocol: as §1, §2

[5] = human serum, 37 °C, preliminary
Protocol: The proteolytic stability of synthetic peptides was assessed using chymotrypsin (Sigma–Aldrich) and human serum (Sigma–Aldrich)[46]. The peptide (0.125 mg) was dissolved in the minimum amount (5 µl) of DMSO (dimethylsulfoxide) and then diluted (final volume: 50 µl) with Tris·HCl 50 mM, pH 7.8. Then, it was incubated with and without the enzyme solution (1.25 µg of enzyme in 150 µl buffer) at 37 °C for 24 h. After the workup procedures, the samples were analysed by RP-HPLC as described in the ‘peptide synthesis and characterization’ experimental section. A peptide not resistant to chymotripsin was used as a positive test. As a control, we used the 128-137 C-terminal portion of natural Endonuclease V. The peptide sequence is as follows: […]. All the degradation experiments were executed in triplicates.
Figure S10. […] The bars indicate the final time when the HPLC-MS signal of the peptides is still detectable in solution.

[6] = Circular dichroism, helicity; type: physicochemical; conditions: CD in TFE; taken as suggesting aggregation (coiled-coil)
Protocol: The secondary structure of the peptides was investigated by circular dichroism (CD) spectroscopy in various environments, including 0.2 mM potassium-phosphate buffer (aqueous solution, pH 7), 100 mM sodium dodecyl sulphate (SDS), and 2,2,2-trifluoroethanol (TFE). As these peptides are active on membranes, we chose SDS, as SDS micelles represent a model mimicking the prokaryotic cell membrane. TFE, on the other hand, is a solvent that induces the formation of helical structures.
The electronic CD curves in the far-UV region (below 260 nm) were obtained on a Jasco (Tokyo, Japan) model J-1500 spectropolarimeter with a fused quartz cell of 0.02 cm pathlength (Hellma, Mühlheim, Germany). The values are expressed in terms of [θ]R, the molar ellipticity per residue (deg × cm^2/dmol). Spectra were recorded at room temperature in water, in spectrograde TFE (99.9% Acros Organics, Geel, Belgium) and 100 mM SDS solution at 3 × 10^−4 M peptide concentration. The final molar peptide-to-lipid ratio is 1:300.

[7] = S.aureus ATCC 25923, Mueller–Hinton broth, 18 h, 37 °C, 2.5 × 10^5 CFU/mL, visual, mode of three independent tests

Molecule: CCCCCCCCCCCCCCCC(=O)N[C@@H](CCCCN)C(=O)N[C@@H](CCCNC(=N)N)C(=O)N[C@@H](CC(C)C)C(=O)N[C@@H](CCCCN)C(=O)N[C@@H](CCCCN)C(=O)N[C@H](C(=O)NCC(=O)N[C@@H](CCCCN)C(=O)N[C@H](C(=O)N[C@@H](CC(C)C)C(=O)N[C@@H](CCCCN)C(=O)N[C@@H](Cc1c[nH]c2ccccc12)C(=O)N[C@H](C(=O)N[C@@H](C)C(=O)N[C@@H](CCCCN)C(=O)N[C@H](C(=O)N[C@H](C(=O)NCC(=O)N[C@@H](CO)C(=O)N[C@H](C(N)=O)[C@@H](C)CC)C(C)C)[C@@H](C)CC)[C@@H](C)CC)C(C)C)[C@@H](C)CC [e] (Palmitoyl-KRLKKIGKVLKWIAKIVGSI-NH2)
- MIC (E.coli ATCC 25922): >32 µM
- MIC (S.aureus ATCC 25923; ATCC 25923, 18 h): >32 µM
- MIC (A.baumanni ATCC 19606): >32 µM
- MIC (K.pneumoniae ATCC 700603): >32 µM
- MIC (P.aeruginosa ATCC 27853): >32 µM
- MIC (S.epidermidis ATCC 12228): >32 µM
- membranolytic (haemolytic) effect on erythrocytes [1]: significant lytic effect
- remaining at 1.5 h, 0.625 mg/mL (chymotrypsin): 65%
- metabolised at 1.5 h, 0.625 mg/mL (chymotrypsin; HPLC, read-out: percentage of peptide degraded by chymotrypsin): < 50%
- HC50 (cytotoxicity on HaCaT cells) (HaCaT cell line): < 32 µM
- solubility in Müller-Hinton broth [2]: low solubility

Molecule: CC[C@H](C)[C@H](NC(=O)[C@H](Cc1c[nH]c2ccccc12)NC(=O)[C@H](CCCCN)NC(=O)C(C)(C)NC(=O)[C@@H](NC(=O)[C@H](CCCCN)NC(=O)CNC(=O)[C@@H](NC(=O)[C@H](CCCCN)NC(=O)[C@H](CCCCN)NC(=O)[C@H](CC(C)C)NC(=O)[C@H](CCCNC(=N)N)NC(=O)[C@H](CCCCN)NC(C)=O)[C@@H](C)CC)C(C)C)C(N)=O [h] (Ac-KRLKKIGKV[Aib]KWI-NH2)
- Retention time tR [3]: 11.7 min
- MIC (E.coli ATCC 25922): 4 µM (≈ 6.49 µg/mL)
- MIC (S.aureus ATCC 25923; ATCC 25923, 18 h): >64 µM
- MIC (S.aureus ATCC 25923; [7]): > 64 µM
- MIC (A.baumanni ATCC 19606): 2 µM (≈ 3.25 µg/mL)
- MIC (K.pneumoniae ATCC 700603): 8 µM (≈ 13 µg/mL)
- MIC (P.aeruginosa ATCC 27853): 8 µM (≈ 13 µg/mL)
- MIC (S.epidermidis ATCC 12228): 8 µM (≈ 13 µg/mL)
- MIC, span over all tested bacterial strains except S. aureus [4]: 2 to 8 µM
- membranolytic (haemolytic) effect on erythrocytes [1]: no membranolytic effect
- remaining at 1.5 h, 0.625 mg/mL (chymotrypsin): 50%
- time peptide withstands proteolytic degradation in serum (HPLC-MS signal still detectable) [5]: up to 180 min

Molecule: Ac-KRLKKIGKVLKWI-NH2 [g]
- Retention time tR [3]: 12.1 min
- MIC (E.coli ATCC 25922): 4 µM
- MIC (S.aureus ATCC 25923; ATCC 25923, 18 h): >64 µM
- MIC (S.aureus ATCC 25923; [7]): > 64 µM
- MIC (A.baumanni ATCC 19606): 2 µM
- MIC (K.pneumoniae ATCC 700603): 8 µM
- MIC (P.aeruginosa ATCC 27853): 8 µM
- MIC (S.epidermidis ATCC 12228): 4 µM
- MIC, span over all tested bacterial strains except S. aureus [4]: 2 to 8 µM
- proteolytic degradation in serum ([5]; HPLC-MS): rapidly degraded

Molecule: Ac-KRLKKIGKVLKWIAKIVGSI-NH2 [b]
- Retention time tR [3]: 17.2 min
- Hydrophobicity ΔtR ([3]; ΔtR = tR(x)−tR(a), relative to compound a, RP-HPLC C18, 5%–95%B over 30 min): 4.0
- ratio between molar ellipticities at 222 and 208 nm [6]: > 1
- MIC (E.coli ATCC 25922): 4 µM
- MIC (S.aureus ATCC 25923; [7]): 4 µM
- MIC (A.baumanni ATCC 19606): 2 µM
- MIC (K.pneumoniae ATCC 700603): 8 µM
- MIC (P.aeruginosa ATCC 27853): 16 µM
- MIC (S.epidermidis ATCC 12228): 4 µM
- membranolytic (haemolytic) effect on erythrocytes [1]: significant lytic effect
